{"source": "patent US9777301B2", "about": "“Method for producing optically active amine compounds by deracemization” (INDUSTRY-ACADEMIC COOPERATION FOUNDATION, YONSEI UNIVERSITY, priority 2012, dated 2017)", "test_system": "D-amino acid transaminase", "assay": "Effect of L-amino acid concentration on activity of D-amino acid transaminase", "assay_type": "biochemical, Bacillus sphaericus", "conditions": "0-20 mM L-homoalanine in 20 mM D-homoalanine, 20 mM pyruvate, pH 7, 37° C., 10 min; 2-oxobutyrate measured", "experimental": "For continuous deracemization of a racemic amino acid with the D-amino acid transaminase purified in Example 7, L-amino acid as a final product should not affect the activity of the D-amino acid transaminase. Deterioration in the activity of the enzyme by the final product makes it difficult to induce continuous reactions. The activities of the D-amino acid transaminase were confirmed at different concentrations (0, 1, 3, 5, 7, 10, 15, and 20 mM) of L-homoalanine in 20 mM D-homoalanine, 20 mM pyruvate, and 50 mM potassium phosphate (pH 7). After the reactions were carried out at 37° C. for 10 min, the amounts of 2-oxobutyrate produced were measured."}
{"compound": "CC[C@H](N)C(=O)O", "note": "[L-homoalanine]", "values": [{"measurement": "Effect of L-amino acid on activity of D-amino acid transaminase (FIG. 1)", "value": "did not lose its activity"}]}
